Target: FGFR3 enzyme (Homo sapiens (Human), UniProt P22607)
Assay: FGFR Enzymatic Assay (peptide phosphorylation, FRET), FGFR3
Assay type: biochemical
Conditions: IC50 ratio showing FGFR3 selectivity; pre-incubated for 4 hours
Method: The inhibitor potency of the exemplified compounds was measured in an enzyme assay that measures peptide phosphorylation using FRET measurements to detect product formation. Inhibitors were serially diluted in DMSO and a volume of 0.5 μL was transferred to the wells of a 384-well plate.
GraphPad prism3 was used to analyze the data.

Chain of FGFR3 enzyme (P22607 23-806): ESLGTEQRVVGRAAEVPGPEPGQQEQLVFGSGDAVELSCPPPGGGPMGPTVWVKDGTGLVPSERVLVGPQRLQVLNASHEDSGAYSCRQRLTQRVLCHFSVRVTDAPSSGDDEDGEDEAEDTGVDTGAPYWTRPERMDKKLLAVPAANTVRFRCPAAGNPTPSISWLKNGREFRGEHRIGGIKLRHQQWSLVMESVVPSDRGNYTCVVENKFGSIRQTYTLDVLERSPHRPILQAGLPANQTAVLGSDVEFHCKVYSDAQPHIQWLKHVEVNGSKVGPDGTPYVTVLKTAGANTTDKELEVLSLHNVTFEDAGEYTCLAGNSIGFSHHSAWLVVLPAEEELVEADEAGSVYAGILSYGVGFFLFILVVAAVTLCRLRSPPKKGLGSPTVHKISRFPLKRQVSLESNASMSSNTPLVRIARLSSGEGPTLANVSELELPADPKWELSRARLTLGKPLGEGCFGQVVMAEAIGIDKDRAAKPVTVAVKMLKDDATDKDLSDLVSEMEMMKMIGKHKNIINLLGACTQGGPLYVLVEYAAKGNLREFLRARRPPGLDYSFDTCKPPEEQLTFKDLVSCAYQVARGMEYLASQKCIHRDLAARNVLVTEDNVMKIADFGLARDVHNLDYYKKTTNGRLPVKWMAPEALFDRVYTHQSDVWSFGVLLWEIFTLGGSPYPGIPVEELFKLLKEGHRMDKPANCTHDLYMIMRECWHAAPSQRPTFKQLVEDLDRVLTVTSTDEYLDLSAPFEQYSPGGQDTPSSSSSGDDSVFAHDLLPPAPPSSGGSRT

Row | Compound | FGFR1/FGFR3 | FGFR4/FGFR3
1 | CCN1C(=O)N(c2c(F)c(OC)cc(OC)c2F)Cc2cnc(-c3cn(CC(=O)N4CCOCC4)nc3C)cc21 [Example 51, 3-(2,6-difluoro-3,5-dimethoxyphenyl)-1-ethyl-7-(3-methyl-1-(2-morpholino-2-oxoethyl)-1H-pyrazol-4-yl)-3,4-dihydropyrido[4,3-d]pyrimidin-2(1H)-one] | >1 | >1
2 | CCN1C(=O)N(c2c(F)c(OC)cc(OC)c2F)Cc2cnc(-c3ccc(C4(C#N)CCC4)nc3)cc21 [Example 27, 1-(5-(3-(2,6-difluoro-3,5-dimethoxyphenyl)-1-ethyl-2-oxo-1,2,3,4-tetrahydropyrido[4,3-d]pyrimidin-7-yl)pyridin-2-yl)cyclobutanecarbonitrile] | >10 | >10
3 | COc1cc(OC)c(F)c(N2Cc3cnc(-c4cn(C)nc4C)cc3N(C[C@H]3CCOC3)C2=O)c1F [Example 108, (R)-3-(2,6-difluoro-3,5-dimethoxyphenyl)-7-(1,3-dimethyl-1H-pyrazol-4-yl)-1-((tetrahydrofuran-3-yl)methyl)-3,4-dihydropyrido[4,3-d]pyrimidin-2(1H)-one] | >3 | >3
4 | COC(=O)N1CCC(N2C(=O)N(c3c(F)c(OC)cc(OC)c3F)Cc3cnc(-c4cn(C)nc4C)cc32)CC1 [Example 122, Methyl 4-(3-(2,6-difluoro-3,5-dimethoxyphenyl)-7-(1,3-dimethyl-1H-pyrazol-4-yl)-2-oxo-3,4-dihydropyrido[4,3-d]pyrimidin-1(2H)-yl)piperidine-1-carboxylate] | >5 | >5
5 | COc1cc(OC)c(F)c(N2Cc3cnc(-c4cn(C)nc4C)cc3N(C3CCN(S(C)(=O)=O)CC3)C2=O)c1F [Example 71, 3-(2,6-difluoro-3,5-dimethoxyphenyl)-7-(1,3-dimethyl-1H-pyrazol-4-yl)-1-(1-(methylsulfonyl)piperidin-4-yl)-3,4-dihydropyrido[4,3-d]pyrimidin-2(1H)-one] | >5 | >3
6 | CCn1cnc(-c2cc3c(cn2)CN(c2c(F)c(OC)cc(OC)c2F)C(=O)C32CC2)c1 [Example 53, 2′-(2,6-difluoro-3,5-dimethoxyphenyl)-6′-(1-ethyl-1H-imidazol-4-yl)-1′H-spiro[cyclopropane-1,4′-[2,7]naphthyridin]-3′(2′H)-one] | >5 | >5
7 | CCc1nnc(CN2C(=O)N(c3c(F)c(OC)cc(OC)c3F)Cc3cnc(-c4cn(C)nc4C)cc32)o1 [Example 67, 3-(2,6-difluoro-3,5-dimethoxyphenyl)-7-(1,3-dimethyl-1H-pyrazol-4-yl)-1-((5-ethyl-1,3,4-oxadiazol-2-yl)methyl)-3,4-dihydropyrido[4,3-d]pyrimidin-2(1H)-one] | >5 | >10
8 | COc1cc(OC)c(F)c(N2Cc3cnc(-c4cn(C)nc4C)cc3N(Cc3cnn(C)c3)C2=O)c1F [Example 72, 3-(2,6-difluoro-3,5-dimethoxyphenyl)-7-(1,3-dimethyl-1H-pyrazol-4-yl)-1-((1-methyl-1H-pyrazol-4-yl)methyl)-3,4-dihydropyrido[4,3-d]pyrimidin-2(1H)-one] | >5 | >10
9 | COc1cc(OC)c(F)c(N2Cc3cnc(-c4ccc(C#N)nc4)cc3C3(CC3)C2=O)c1F [Example 20, 5-(2′-(2,6-difluoro-3,5-dimethoxyphenyl)-3′-oxo-2′,3′-dihydro-1′H-spiro[cyclopropane-1,4′-[2,7]naphthyridine]-6′-yl)picolinonitrile] | >5 | –
10 | COc1cc(OC)c(F)c(N2Cc3cnc(-c4cn(C)nc4C)cc3N(Cc3nnc(C)o3)C2=O)c1F [Example 46, 3-(2,6-difluoro-3,5-dimethoxyphenyl)-7-(1,3-dimethyl-1H-pyrazol-4-yl)-1-[(5-methyl-1,3,4-oxadiazol-2-yl)methyl]-3,4-dihydropyrido[4,3-d]pyrimidin-2(1H)-one] | >10 | >10
11 | CNC(=O)c1ccc(-c2cc3c(cn2)CN(c2c(F)c(OC)cc(OC)c2F)C(=O)C32CC2)cc1 [Example 19, 4-(2′-(2,6-difluoro-3,5-dimethoxyphenyl)-3′-oxo-2′,3′-dihydro-1′H-spiro[cyclopropane-1,4′-[2,7]naphthyridine]-6′-yl)-N-methylbenzamide] | >5 | –

Next, values leading:

Row | FGFR1/FGFR3 | FGFR4/FGFR3 | Compound
12 | >5 | >5 | COc1cc(OC)c(F)c(N2Cc3cnc(-c4cnn(C5CCN(C(C)=O)C5)c4)cc3C3(CC3)C2=O)c1F (stereo not drawn) [Example 150, 6′-(1-(1-acetylpyrrolidin-3-yl)-1H-pyrazol-4-yl)-2′-(2,6-difluoro-3,5-dimethoxyphenyl)-1′H-spiro[cyclopropane-1,4′-[2,7]naphthyridin]-3′(2′H)-one]
13 | >5 | >3 | COc1cc(OC)c(F)c(N2Cc3cnc(-c4cnn(C5(C#N)CCC5)c4C)cc3C3(CC3)C2=O)c1F [Example 149, 1-(4-(2′-(2,6-difluoro-3,5-dimethoxyphenyl)-3′-oxo-2′,3′-dihydro-1′H-spiro[cyclopropane-1,4′-[2,7]naphthyridine]-6′-yl)-5-methyl-1H-pyrazol-1-yl)cyclobutanecarbonitrile]
14 | >3 | >5 | CCc1cnc(N2C(=O)N(c3c(F)c(OC)cc(OC)c3F)Cc3cnc(-c4cn(C)nc4C)cc32)cn1 [Example 106, 3-(2,6-difluoro-3,5-dimethoxyphenyl)-7-(1,3-dimethyl-1H-pyrazol-4-yl)-1-(5-ethylpyrazin-2-yl)-3,4-dihydropyrido[4,3-d]pyrimidin-2(1H)-one]
15 | >5 | >10 | COc1cc(OC)c(F)c(N2Cc3cnc(-c4cn(C)nc4C)cc3N(c3cn[nH]c3)C2=O)c1F [Example 129, 3-(2,6-difluoro-3,5-dimethoxyphenyl)-7-(1,3-dimethyl-1H-pyrazol-4-yl)-1-(1H-pyrazol-4-yl)-3,4-dihydropyrido[4,3-d]pyrimidin-2(1H)-one]
16 | >3 | >3 | COc1cc(OC)c(F)c(N2Cc3cnc(-c4ccncc4)cc3C3(CC3)C2=O)c1F [Example 185, 2′-(2,6-difluoro-3,5-dimethoxyphenyl)-6′-(pyridin-4-yl)-1′H-spiro[cyclopropane-1,4′-[2,7]naphthyridin]-3′(2′H)-one]
17 | >3 | >5 | COc1cc(OC)c(F)c(N2Cc3cnc(-c4cn(C)nc4C)cc3N(c3ccc(C(=O)N(C)C)cc3)C2=O)c1F [Example 113, 4-(3-(2,6-difluoro-3,5-dimethoxyphenyl)-7-(1,3-dimethyl-1H-pyrazol-4-yl)-2-oxo-3,4-dihydropyrido[4,3-d]pyrimidin-1(2H)-yl)-N,N-dimethylbenzamide]
18 | >10 | >10 | COc1cc(OC)c(F)c(N2Cc3cnc(-c4cn(C)nc4C)cc3N(Cc3cnn(C4CC4)c3)C2=O)c1F [Example 124, 1-((1-cyclopropyl-1H-pyrazol-4-yl)methyl)-3-(2,6-difluoro-3,5-dimethoxyphenyl)-7-(1,3-dimethyl-1H-pyrazol-4-yl)-3,4-dihydropyrido[4,3-d]pyrimidin-2(1H)-one]
19 | >5 | >10 | COc1cc(OC)c(F)c(N2Cc3cnc(-c4cn(C)nc4C)cc3N(c3ccc(CC#N)cc3)C2=O)c1F [Example 97, 2-(4-(3-(2,6-difluoro-3,5-dimethoxyphenyl)-7-(1,3-dimethyl-1H-pyrazol-4-yl)-2-oxo-3,4-dihydropyrido[4,3-d]pyrimidin-1(2H)-yl)phenyl)acetonitrile]
20 | >5 | >3 | COc1cc(OC)c(F)c(N2Cc3cnc(-c4cn(C)nc4C)cc3N(c3ccc4nc(C)oc4c3)C2=O)c1F [Example 75, 3-(2,6-difluoro-3,5-dimethoxyphenyl)-7-(1,3-dimethyl-1H-pyrazol-4-yl)-1-(2-methylbenzo[d]oxazol-6-yl)-3,4-dihydropyrido[4,3-d]pyrimidin-2(1H)-one]
21 | >3 | >5 | CCCn1cc(N2C(=O)N(c3c(F)c(OC)cc(OC)c3F)Cc3cnc(-c4cn(C)nc4C)cc32)cn1 [Example 132, 3-(2,6-difluoro-3,5-dimethoxyphenyl)-7-(1,3-dimethyl-1H-pyrazol-4-yl)-1-(1-propyl-1H-pyrazol-4-yl)-3,4-dihydropyrido[4,3-d]pyrimidin-2(1H)-one]
22 | >5 | >1 | COc1cc(OC)c(F)c(N2Cc3cnc(-c4cn(Cc5cccnc5)nc4C)cc3C3(CC3)C2=O)c1F [Example 155, 2′-(2,6-difluoro-3,5-dimethoxyphenyl)-6′-(3-methyl-1-(pyridin-3-ylmethyl)-1H-pyrazol-4-yl)-1′H-spiro[cyclopropane-1,4′-[2,7]naphthyridin]-3′(2′H)-one]
23 | >5 | >10 | COc1cc(OC)c(F)c(N2Cc3cnc(-c4cn(C)nc4C)cc3N(c3cncc(C)n3)C2=O)c1F [Example 87, 3-(2,6-difluoro-3,5-dimethoxyphenyl)-7-(1,3-dimethyl-1H-pyrazol-4-yl)-1-(6-methylpyrazin-2-yl)-3,4-dihydropyrido[4,3-d]pyrimidin-2(1H)-one]
24 | >3 | >5 | COc1cc(OC)c(F)c(N2Cc3cnc(-c4cn(C)nc4C)cc3N(c3ncccn3)C2=O)c1F [Example 105, 3-(2,6-difluoro-3,5-dimethoxyphenyl)-7-(1,3-dimethyl-1H-pyrazol-4-yl)-1-(pyrimidin-2-yl)-3,4-dihydropyrido[4,3-d]pyrimidin-2(1H)-one]
25 | >3 | >5 | COc1ccc(N2C(=O)N(c3c(F)c(OC)cc(OC)c3F)Cc3cnc(-c4cn(C)nc4C)cc32)cc1 [Example 104, 3-(2,6-difluoro-3,5-dimethoxyphenyl)-7-(1,3-dimethyl-1H-pyrazol-4-yl)-1-(4-methoxyphenyl)-3,4-dihydropyrido[4,3-d]pyrimidin-2(1H)-one]
